{"source": "patent US9493537B2", "about": "“Compounds with reduced ring size for use in diagnosing and treating melanoma, including metastatic melanoma and methods related to same” (STC.UNM, priority 2009, dated 2016)", "key": {"[1]": {"experiment": "Metabolites in urine and melanoma by RP-HPLC", "type": "in vivo, C57 mice", "conditions": "urine, 2 h post-injection", "description": "The mouse used for the imaging study (2 h post-injection) described above was euthanized and the urine was collected for identifying the metabolites. The urinary sample was centrifuged at 16,000 g for 5 min prior to the HPLC analysis. The radioactive metabolite in the urine was analyzed by injecting aliquots of urine into the HPLC. A 20-minute gradient of 18-28% acetonitrile/20 mM HCl was used for the urine analysis.\nBoth melanoma and urine were collected from the mouse used for SPECT/CT imaging to analyze the metabolites of ^111In-DOTA-GGNle-CycMSHhex in melanoma and urine. The tumor was homogenized by a VWR homogenizer for 5 mins. Equal volume of ethanol was added into the tumor sample. The tumor sample was vortexed and then centrifuged at 16,000 g for 5 mins. The supernatant was transferred into a glass test tube and purged with N2 gas for 20 mins to remove the ethanol. Aliquots of the supernatant were injected into HPLC. The urinary sample was directly centrifuged at 16,000 g for 5 mins prior to the HPLC analysis. Thereafter, aliquots of the urine were injected into HPLC. The HPLC gradient described above was used for the analyses of metabolites."}, "[2]": {"experiment": "Biodistribution in B16/F1 melanoma-bearing C57 mice", "type": "in vivo", "conditions": "female, C57, mouse, iv, total radioactivity; for tissue uptake at 2 h / tissue uptake dose at 2 h: 2 h post-injection", "description": "All the animal studies were conducted in compliance with Institutional Animal Care and Use Committee approval. The mice were housed five animals per cage in sterile micro-isolator cages in a temperature- and humidity-controlled room with a 12-h light/12-h dark schedule. […] C57 mice were subcutaneously inoculated on the right flank with 1×10^6 B16/F1 cells. The weight of tumors reached approximately 0.2 g 10 days post cell inoculation. […] Groups of 5 mice were sacrificed at 0.5, 2, 4 and 24 h post-injection, and tumors and organs of interest were harvested, weighed and counted. Blood values were taken as 6.5% of the whole-body weight. […] The mice were sacrificed at 2 h post-injection. The tumor and organs of interest were harvested, weighed and counted.\nAll animal studies were conducted in compliance with Institutional Animal Care and Use Committee approval. The pharmacokinetics of ^111In-DOTA-GGNle-CycMSHhex and ^111In-DOTA-GENle-CycMSHhex were determined in B16/F1 melanoma-bearing C57 female mice (Harlan, Indianapolis, Ind.). The C57 mice were subcutaneously inoculated with 1×10^6 B16/F1 cells on the right flank for each mouse to generate B16/F1 melanomas. Ten days post inoculation, the tumor weights reached approximately 0.2 g. Each melanoma-bearing mouse was injected with 0.037 MBq of ^111In-DOTA-GGNle-CycMSHhex or ^111In-DOTA-GENle-CycMSHhex via the tail vein. Groups of 5 mice were sacrificed at 0.5, 2, 4 and 24 h post-injection, and tumors and organs of interest were harvested, weighed and counted. Blood values were taken as 6.5% of the whole-body weight. The specificities of the tumor uptake of ^111In-DOTA-GGNle-CycMSHhex and ^111In-DOTA-GENle-CycMSHhex were determined by co-injecting 10 μg (6.07 nmol) of unlabeled NDP-MSH which is a linear α-MSH peptide analogue with picomolar MC1 receptor binding affinity."}}, "note": "Like-named read-outs stand apart in the source and are kept apart here."}
{"smiles": "CCCC[C@H](NC(=O)CN1CCN(CC(=O)O)CCN(CC(=O)O)CCN(CC(=O)O)CC1)C(=O)N[C@H]1CC(=O)NCCCC[C@@H](C(N)=O)NC(=O)[C@H](Cc2c[nH]c3ccccc23)NC(=O)[C@H](CCCNC(=N)N)NC(=O)[C@@H](Cc2ccccc2)NC(=O)[C@H](Cc2c[nH]cn2)NC1=O", "note": "[^111In-DOTA-Nle-CycMSHhex, metal not drawn]", "values": [{"measurement": "urinary metabolites by HPLC", "setting": "[1]", "result": "remained intact"}, {"measurement": "tissue uptake at 0.5 h", "setting": "[2]; blood, 0.037 MBq, 0.5 h post-injection, read-out: Blood uptake", "result": "3.33 ± 0.35", "unit": "%ID/g"}, {"measurement": "tissue uptake at 2 h", "setting": "[2]; blood, 0.037 MBq, read-out: Blood uptake", "result": "0.11 ± 0.07", "unit": "%ID/g"}, {"measurement": "tissue uptake at 4 h", "setting": "[2]; blood, 0.037 MBq, 4 h post-injection, read-out: Blood uptake", "result": "0.05 ± 0.02", "unit": "%ID/g"}, {"measurement": "tissue uptake at 24 h", "setting": "[2]; blood, 0.037 MBq, 24 h post-injection, read-out: Blood uptake", "result": "0.02 ± 0.01", "unit": "%ID/g"}, {"measurement": "tissue uptake at 2 h", "setting": "[2]; blood, L-lysine co-injection, read-out: Blood uptake", "result": "0.92 ± 0.48", "unit": "%ID/g"}, {"measurement": "tissue uptake at 2 h", "setting": "[2]; blood, NDP blockade, read-out: Blood uptake", "result": "0.07 ± 0.05", "unit": "%ID/g"}, {"measurement": "tissue uptake at 0.5 h", "setting": "[2]; bone, 0.037 MBq, 0.5 h post-injection, read-out: Bone uptake", "result": "1.34 ± 0.4", "unit": "%ID/g"}, {"measurement": "tissue uptake at 2 h", "setting": "[2]; bone, 0.037 MBq, read-out: Bone uptake", "result": "0.18 ± 0.1", "unit": "%ID/g"}, {"measurement": "tissue uptake at 4 h", "setting": "[2]; bone, 0.037 MBq, 4 h post-injection, read-out: Bone uptake", "result": "0.22 ± 0.15", "unit": "%ID/g"}, {"measurement": "tissue uptake at 24 h", "setting": "[2]; bone, 0.037 MBq, 24 h post-injection, read-out: Bone uptake", "result": "0.16 ± 0.03", "unit": "%ID/g"}, {"measurement": "tissue uptake at 2 h", "setting": "[2]; bone, L-lysine co-injection, read-out: Bone uptake", "result": "0.55 ± 0.14", "unit": "%ID/g"}, {"measurement": "tissue uptake at 2 h", "setting": "[2]; bone, NDP blockade, read-out: Bone uptake", "result": "0.05 ± 0.04", "unit": "%ID/g"}, {"measurement": "tissue uptake at 0.5 h", "setting": "[2]; brain, 0.037 MBq, 0.5 h post-injection, read-out: Brain uptake", "result": "0.21 ± 0.07", "unit": "%ID/g"}, {"measurement": "tissue uptake at 2 h", "setting": "[2]; brain, 0.037 MBq, read-out: Brain uptake", "result": "0.02 ± 0.01", "unit": "%ID/g"}, {"measurement": "tissue uptake at 4 h", "setting": "[2]; brain, 0.037 MBq, 4 h post-injection, read-out: Brain uptake", "result": "0.06 ± 0.03", "unit": "%ID/g"}, {"measurement": "tissue uptake at 24 h", "setting": "[2]; brain, 0.037 MBq, 24 h post-injection, read-out: Brain uptake", "result": "0.03 ± 0.01", "unit": "%ID/g"}, {"measurement": "tissue uptake at 2 h", "setting": "[2]; brain, L-lysine co-injection, read-out: Brain uptake", "result": "0.04 ± 0.01", "unit": "%ID/g"}, {"measurement": "tissue uptake at 2 h", "setting": "[2]; brain, NDP blockade, read-out: Brain uptake", "result": "0.01 ± 0.01", "unit": "%ID/g"}, {"measurement": "tissue uptake at 0.5 h", "setting": "[2]; heart, 0.037 MBq, 0.5 h post-injection, read-out: Heart uptake", "result": "1.24 ± 0.15", "unit": "%ID/g"}, {"measurement": "tissue uptake at 2 h", "setting": "[2]; heart, 0.037 MBq, read-out: Heart uptake", "result": "0.16 ± 0.1", "unit": "%ID/g"}, {"measurement": "tissue uptake at 4 h", "setting": "[2]; heart, 0.037 MBq, 4 h post-injection, read-out: Heart uptake", "result": "0.12 ± 0.03", "unit": "%ID/g"}, {"measurement": "tissue uptake at 24 h", "setting": "[2]; heart, 0.037 MBq, 24 h post-injection, read-out: Heart uptake", "result": "0.07 ± 0.05", "unit": "%ID/g"}, {"measurement": "tissue uptake at 2 h", "setting": "[2]; heart, L-lysine co-injection, read-out: Heart uptake", "result": "0.37 ± 0.02", "unit": "%ID/g"}, {"measurement": "tissue uptake at 2 h", "setting": "[2]; heart, NDP blockade, read-out: Heart uptake", "result": "0.06 ± 0.02", "unit": "%ID/g"}, {"measurement": "tissue uptake dose at 0.5 h", "setting": "[2]; intestines, 0.037 MBq, 0.5 h post-injection, read-out: Intestines, percent injected dose", "result": "2.16 ± 0.28", "unit": "%ID"}, {"measurement": "tissue uptake dose at 2 h", "setting": "[2]; intestines, 0.037 MBq, read-out: Intestines, percent injected dose", "result": "1.4 ± 0.56", "unit": "%ID"}, {"measurement": "tissue uptake dose at 4 h", "setting": "[2]; intestines, 0.037 MBq, 4 h post-injection, read-out: Intestines, percent injected dose", "result": "3.03 ± 1.06", "unit": "%ID"}, {"measurement": "tissue uptake dose at 24 h", "setting": "[2]; intestines, 0.037 MBq, 24 h post-injection, read-out: Intestines, percent injected dose", "result": "1.41 ± 0.86", "unit": "%ID"}, {"measurement": "tissue uptake dose at 2 h", "setting": "[2]; intestines, L-lysine co-injection, read-out: Intestines, percent injected dose", "result": "1.85 ± 0.73", "unit": "%ID"}, {"measurement": "tissue uptake dose at 2 h", "setting": "[2]; intestines, NDP blockade, read-out: Intestines, percent injected dose", "result": "1.14 ± 0.47", "unit": "%ID"}, {"measurement": "tissue uptake at 0.5 h", "setting": "[2]; kidneys, 0.037 MBq, 0.5 h post-injection, read-out: Kidneys uptake", "result": "16.2 ± 4.32", "unit": "%ID/g"}, {"measurement": "tissue uptake at 2 h", "setting": "[2]; kidneys, 0.037 MBq, read-out: Kidneys uptake", "result": "9.52 ± 0.44", "unit": "%ID/g"}, {"measurement": "tissue uptake at 4 h", "setting": "[2]; kidneys, 0.037 MBq, 4 h post-injection, read-out: Kidneys uptake", "result": "9.99 ± 1.39", "unit": "%ID/g"}, {"measurement": "tissue uptake at 24 h", "setting": "[2]; kidneys, 0.037 MBq, 24 h post-injection, read-out: Kidneys uptake", "result": "9.31 ± 0.91", "unit": "%ID/g"}, {"measurement": "tissue uptake at 2 h", "setting": "[2]; kidneys, L-lysine co-injection, read-out: Kidneys uptake", "result": "6.66 ± 0.62", "unit": "%ID/g"}, {"measurement": "tissue uptake at 2 h", "setting": "[2]; kidneys, NDP blockade, read-out: Kidneys uptake", "result": "11.6 ± 0.56", "unit": "%ID/g"}, {"measurement": "tissue uptake at 0.5 h", "setting": "[2]; liver, 0.037 MBq, 0.5 h post-injection, read-out: Liver uptake", "result": "2.75 ± 0.26", "unit": "%ID/g"}, {"measurement": "tissue uptake at 2 h", "setting": "[2]; liver, 0.037 MBq, read-out: Liver uptake", "result": "1.46 ± 0.2", "unit": "%ID/g"}, {"measurement": "tissue uptake at 4 h", "setting": "[2]; liver, 0.037 MBq, 4 h post-injection, read-out: Liver uptake", "result": "1.72 ± 0.07", "unit": "%ID/g"}, {"measurement": "tissue uptake at 24 h", "setting": "[2]; liver, 0.037 MBq, 24 h post-injection, read-out: Liver uptake", "result": "1.89 ± 0.14", "unit": "%ID/g"}, {"measurement": "tissue uptake at 2 h", "setting": "[2]; liver, L-lysine co-injection, read-out: Liver uptake", "result": "1.42 ± 0.3", "unit": "%ID/g"}, {"measurement": "tissue uptake at 2 h", "setting": "[2]; liver, NDP blockade, read-out: Liver uptake", "result": "1.46 ± 0.08", "unit": "%ID/g"}, {"measurement": "tissue uptake at 0.5 h", "setting": "[2]; lung, 0.037 MBq, 0.5 h post-injection, read-out: Lung uptake", "result": "2.45 ± 0.83", "unit": "%ID/g"}, {"measurement": "tissue uptake at 2 h", "setting": "[2]; lung, 0.037 MBq, read-out: Lung uptake", "result": "0.32 ± 0.1", "unit": "%ID/g"}, {"measurement": "tissue uptake at 4 h", "setting": "[2]; lung, 0.037 MBq, 4 h post-injection, read-out: Lung uptake", "result": "0.1 ± 0.05", "unit": "%ID/g"}, {"measurement": "tissue uptake at 24 h", "setting": "[2]; lung, 0.037 MBq, 24 h post-injection, read-out: Lung uptake", "result": "0.1 ± 0.03", "unit": "%ID/g"}, {"measurement": "tissue uptake at 2 h", "setting": "[2]; lung, L-lysine co-injection, read-out: Lung uptake", "result": "0.75 ± 0.21", "unit": "%ID/g"}, {"measurement": "tissue uptake at 2 h", "setting": "[2]; lung, NDP blockade, read-out: Lung uptake", "result": "0.3 ± 0.06", "unit": "%ID/g"}, {"measurement": "tissue uptake at 0.5 h", "setting": "[2]; muscle, 0.037 MBq, 0.5 h post-injection, read-out: Muscle uptake", "result": "0.6 ± 0.22", "unit": "%ID/g"}]}
